In patent publication US4291164A, “Cephalosporin analogs and methods for production thereof” (Kyowa Hakko Kogyo Co., Ltd., priority 1978, dated 1981):
Values after ≈ are worked out from the molar mass of the structure shown.

Tests used:
[1] = J. Am. Chem. Soc. 96, 7584 (1974); J. Med. Chem. 20, 551; cited from earlier work
[2] = test system: Salmonella typhosa KY4278; assay: Antibacterial activity, regular agar dilution, Salmonella typhosa KY4278; format: cell-based; settings: Salmonella enterica, pH 7
Experimental: (§1) The antibacterial activity of (±)-cis-2-carboxy-7-[2-(thiophene-2-yl)acetylamino]-1-azabicyclo[4,2,0]oct-2-en-8-one obtained in Example 21 above is set forth below. The activity is determined by the regular agar dilution at pH 7.0.

[3] = test system: Proteus vulgaris KY4277; assay: Antibacterial activity, regular agar dilution, Proteus vulgaris KY4277; format: cell-based; settings: pH 7.0
Experimental: as §1

[4] = test system: Shigella sonnei KY4281; assay: Antibacterial activity, regular agar dilution, Shigella sonnei KY4281; format: cell-based; settings: pH 7.0
Experimental: as §1

[5] = test system: Staphylococcus aureus KY4279; assay: Antibacterial activity, regular agar dilution, Staphylococcus aureus KY4279; format: cell-based; settings: pH 7.0
Experimental: as §1

[6] = test system: Vibrio percolans KY4174; assay: Antibacterial activity, regular agar dilution, Vibrio percolans KY4174; format: cell-based; settings: Comamonas terrigena, pH 7.0
Experimental: as §1

[7] = test system: Bacillus subtilis KY4273; assay: Antibacterial activity, regular agar dilution, Bacillus subtilis KY4273; format: cell-based; settings: pH 7.0
Experimental: as §1

[8] = test system: Erwinia aroides KY3241; assay: Antibacterial activity, regular agar dilution, Erwinia aroides KY3241; format: cell-based; settings: pH 7.0
Experimental: as §1

[9] = test system: Klebsiella penumoniae KY4275; assay: Antibacterial activity, regular agar dilution, Klebsiella penumoniae KY4275; format: cell-based; settings: pH 7.0
Experimental: as §1

[10] = test system: Escherichia coli KY4271; assay: Antibacterial activity, regular agar dilution, Escherichia coli KY4271; format: cell-based; settings: pH 7.0
Experimental: as §1

Compound	antibacterial activity (in words) [1]	MIC [2]	MIC [3]	MIC [4]	MIC [5]	MIC [6]	MIC [7]	MIC [8]	MIC [9]	MIC [10]
CC(=O)OCC1=C(C(=O)O)N2C(=O)C(NC(=O)Cc3cccs3)C2CC1 (racemic) [(±)-1-carbacephalotin]	having antibacterial activity	–	–	–	–	–	–	–	–	–
O=C(Cc1cccs1)NC1C(=O)N2C(C(=O)O)=CCCC12 (stereo not drawn) [Example 21, (±)-cis-2-carboxy-7-[2-(thiophene-2-yl)acetylamino]-1-azabicyclo[4,2,0]oct-2-en-8-one]	–	1 mg/L (≈ 3.26 µM)	8 mg/L (≈ 26.1 µM)	8 mg/L (≈ 26.1 µM)	1 mg/L (≈ 3.26 µM)	2 mg/L (≈ 6.53 µM)	2 mg/L (≈ 6.53 µM)	1 mg/L (≈ 3.26 µM)	4 mg/L (≈ 13.1 µM)	8 mg/L (≈ 26.1 µM)
